Assay type in all cases: biochemical
Assay [1] addresses T1, p70S6K(h) (Homo sapiens, UniProt P23443).
T1 construct: purchased Eurofins KinaseProfiler (Eurofins Cerep)
The assay can be described thus: Eurofins KinaseProfiler radiometric kinase assay. As to conditions: read-out: p70S6K(h) % Residual activity.

Assay [2] has as its target T2, PKCθ(h) (Homo sapiens, UniProt Q04759).
T2 construct: purchased Eurofins KinaseProfiler (Eurofins Cerep)
Description: Eurofins KinaseProfiler radiometric kinase assay. The settings on record: read-out: PKCθ(h) % Residual activity.

In assay [3] the target is T3, IRAK4(h) (Homo sapiens, UniProt Q9NWZ3).
T3 construct: purchased Eurofins KinaseProfiler (Eurofins Cerep)
The assay can be described thus: Eurofins KinaseProfiler radiometric kinase assay. As to conditions: read-out: IRAK4(h) % Residual activity.

Assay [4] addresses T4, CDK1/cyclinB(h) (Homo sapiens, UniProt P06493).
T4 construct: purchased Eurofins KinaseProfiler (Eurofins Cerep)
The assay can be described thus: Eurofins KinaseProfiler radiometric kinase assay. The settings on record: read-out: CDK1/cyclinB(h) % Residual activity.

Assay [5] concerns the target T5, CDK7/cyclinH/MAT1(h) (Homo sapiens, UniProt P50613).
T5 construct: purchased Eurofins KinaseProfiler (Eurofins Cerep)
Description: Eurofins KinaseProfiler radiometric kinase assay. The settings on record: read-out: CDK7/cyclinH/MAT1(h) % Residual activity.

Assay [6] addresses T6, eEF-2K(h) (Homo sapiens, UniProt O00418).
T6 construct: purchased Eurofins KinaseProfiler (Eurofins Cerep)
Description: Eurofins KinaseProfiler radiometric kinase assay. As to conditions: read-out: eEF-2K(h) % Residual activity.

Assay [7] concerns the target T7, DRAK1(h) (Homo sapiens, UniProt Q9UEE5).
T7 construct: purchased Eurofins KinaseProfiler (Eurofins Cerep)
T7 sequence (Q9UEE5 1-414): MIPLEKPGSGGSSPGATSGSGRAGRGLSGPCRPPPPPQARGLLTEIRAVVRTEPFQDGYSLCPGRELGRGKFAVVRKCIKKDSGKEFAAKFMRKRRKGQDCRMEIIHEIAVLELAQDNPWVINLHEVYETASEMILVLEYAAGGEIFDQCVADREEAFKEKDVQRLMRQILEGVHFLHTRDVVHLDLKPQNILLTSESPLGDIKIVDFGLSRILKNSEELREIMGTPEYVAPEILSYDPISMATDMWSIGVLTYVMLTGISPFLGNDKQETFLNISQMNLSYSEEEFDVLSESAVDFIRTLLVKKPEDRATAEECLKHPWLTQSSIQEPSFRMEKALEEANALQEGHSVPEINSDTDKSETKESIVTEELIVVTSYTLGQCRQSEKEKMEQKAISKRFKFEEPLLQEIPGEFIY
The assay can be described thus: Eurofins KinaseProfiler radiometric kinase assay. The settings on record: for remaining activity at 10 µM: read-out: DRAK1(h) % Residual activity.

The target of assay [8] is T8, Fyn(h) (Homo sapiens, UniProt P06241).
T8 construct: purchased Eurofins KinaseProfiler (Eurofins Cerep)
T8 sequence (P06241 whole entry): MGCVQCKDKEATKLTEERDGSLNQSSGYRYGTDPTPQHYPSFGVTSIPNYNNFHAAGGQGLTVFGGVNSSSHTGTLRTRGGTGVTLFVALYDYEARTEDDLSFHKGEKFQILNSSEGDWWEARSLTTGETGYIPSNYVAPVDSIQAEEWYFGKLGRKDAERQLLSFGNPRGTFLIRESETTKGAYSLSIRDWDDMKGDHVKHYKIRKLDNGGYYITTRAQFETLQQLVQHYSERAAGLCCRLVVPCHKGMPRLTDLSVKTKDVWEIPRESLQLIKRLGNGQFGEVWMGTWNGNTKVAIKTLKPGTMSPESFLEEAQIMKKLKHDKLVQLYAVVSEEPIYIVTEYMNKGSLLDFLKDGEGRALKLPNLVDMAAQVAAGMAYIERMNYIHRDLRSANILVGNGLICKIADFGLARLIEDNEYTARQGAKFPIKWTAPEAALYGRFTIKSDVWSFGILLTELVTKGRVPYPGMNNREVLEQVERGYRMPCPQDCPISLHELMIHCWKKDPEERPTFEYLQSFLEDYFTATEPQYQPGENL
The assay can be described thus: Eurofins KinaseProfiler radiometric kinase assay. The settings on record: for Fyn inhibition: 10 µM; for remaining activity at 10 µM: read-out: Fyn(h) % Residual activity.

For assay [9], the target named is T9, PI3 Kinase (p110β/p85α)(h) (Homo sapiens, UniProt P42338).
T9 construct: purchased Eurofins (Eurofins Cerep) KinaseProfiler
Description: Eurofins KinaseProfiler radiometric kinase assay. The settings on record: read-out: PI3 Kinase (p110β/p85α)(h) % Residual activity.

Assay [10] concerns the target T10, NEK2(h) (Homo sapiens, UniProt P51955).
T10 construct: purchased Eurofins KinaseProfiler (Eurofins Cerep)
The assay can be described thus: Eurofins KinaseProfiler radiometric kinase assay. As to conditions: read-out: NEK2(h) % Residual activity.

In assay [11] the target is T11, mTOR(h) (Homo sapiens, UniProt P42345).
T11 construct: purchased Eurofins KinaseProfiler (Eurofins Cerep)
The assay can be described thus: Eurofins KinaseProfiler radiometric kinase assay. The settings on record: read-out: mTOR(h) % Residual activity.

The target of assay [12] is T12, c-RAF(h) (Homo sapiens, UniProt P04049).
T12 construct: purchased Eurofins KinaseProfiler (Eurofins Cerep)
T12 sequence (P04049 whole entry): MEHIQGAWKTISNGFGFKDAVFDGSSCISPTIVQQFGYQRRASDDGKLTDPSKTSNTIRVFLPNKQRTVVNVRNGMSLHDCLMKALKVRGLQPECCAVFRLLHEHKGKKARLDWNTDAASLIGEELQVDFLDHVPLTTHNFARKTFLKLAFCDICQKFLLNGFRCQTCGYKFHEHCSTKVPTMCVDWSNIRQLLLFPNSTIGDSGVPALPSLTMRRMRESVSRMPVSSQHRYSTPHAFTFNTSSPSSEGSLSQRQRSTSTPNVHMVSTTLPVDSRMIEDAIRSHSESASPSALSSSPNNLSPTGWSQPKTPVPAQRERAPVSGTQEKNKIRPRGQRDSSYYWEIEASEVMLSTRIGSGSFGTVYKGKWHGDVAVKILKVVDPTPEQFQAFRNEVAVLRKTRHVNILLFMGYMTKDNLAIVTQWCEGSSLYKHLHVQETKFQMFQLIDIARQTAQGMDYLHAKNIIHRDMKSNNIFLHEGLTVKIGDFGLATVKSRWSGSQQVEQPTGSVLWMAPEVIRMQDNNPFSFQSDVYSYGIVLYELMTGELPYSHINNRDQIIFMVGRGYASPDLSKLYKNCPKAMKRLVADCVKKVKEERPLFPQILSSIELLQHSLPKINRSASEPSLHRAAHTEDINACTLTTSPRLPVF
Description: Eurofins KinaseProfiler radiometric kinase assay. As to conditions: read-out: c-RAF(h) % Residual activity.

Assay [13] deals with T13, PI3 Kinase (p110α/p85α)(h) (Homo sapiens, UniProt P42336).
T13 construct: purchased Eurofins (Eurofins Cerep) KinaseProfiler
Description: Eurofins KinaseProfiler radiometric kinase assay. The settings on record: read-out: PI3 Kinase (p110α/p85α)(h) % Residual activity.

Assay [14] concerns the target T14, CaMKI(h) (Homo sapiens, UniProt Q14012).
T14 construct: purchased Eurofins KinaseProfiler (Eurofins Cerep)
The assay can be described thus: Eurofins KinaseProfiler radiometric kinase assay. As to conditions: read-out: CaMKI(h) % Residual activity.

For assay [15], the target named is T15, EphB4(h) (Homo sapiens, UniProt P54760).
T15 construct: purchased Eurofins KinaseProfiler (Eurofins Cerep)
T15 sequence (P54760 16-987): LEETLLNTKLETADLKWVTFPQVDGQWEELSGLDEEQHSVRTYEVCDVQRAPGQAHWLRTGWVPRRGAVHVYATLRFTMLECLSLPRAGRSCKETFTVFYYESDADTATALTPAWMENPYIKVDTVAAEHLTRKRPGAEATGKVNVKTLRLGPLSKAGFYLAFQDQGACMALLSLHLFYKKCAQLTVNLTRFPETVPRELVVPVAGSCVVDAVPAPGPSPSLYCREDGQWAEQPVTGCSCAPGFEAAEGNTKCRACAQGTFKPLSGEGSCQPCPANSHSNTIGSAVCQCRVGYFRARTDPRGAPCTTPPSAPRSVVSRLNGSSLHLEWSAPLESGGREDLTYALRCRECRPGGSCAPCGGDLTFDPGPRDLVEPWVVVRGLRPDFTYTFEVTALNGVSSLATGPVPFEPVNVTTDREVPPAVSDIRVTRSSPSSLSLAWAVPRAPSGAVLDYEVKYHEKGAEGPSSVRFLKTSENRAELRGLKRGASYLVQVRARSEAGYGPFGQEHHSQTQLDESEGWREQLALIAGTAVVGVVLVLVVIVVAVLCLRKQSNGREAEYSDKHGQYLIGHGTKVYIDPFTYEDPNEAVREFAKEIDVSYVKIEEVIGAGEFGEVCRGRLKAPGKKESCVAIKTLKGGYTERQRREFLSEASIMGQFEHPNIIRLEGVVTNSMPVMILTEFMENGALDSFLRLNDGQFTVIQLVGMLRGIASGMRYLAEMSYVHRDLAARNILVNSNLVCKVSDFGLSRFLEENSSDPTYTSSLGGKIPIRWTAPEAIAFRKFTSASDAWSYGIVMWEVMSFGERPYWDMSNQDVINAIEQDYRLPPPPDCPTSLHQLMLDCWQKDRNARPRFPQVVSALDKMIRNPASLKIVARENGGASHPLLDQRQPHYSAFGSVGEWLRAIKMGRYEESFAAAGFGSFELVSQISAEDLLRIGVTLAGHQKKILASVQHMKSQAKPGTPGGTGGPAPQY
Description: Eurofins KinaseProfiler radiometric kinase assay. As to conditions: read-out: EphB4(h) % Residual activity.

Assay [16] has as its target T16, IKKα(h) (Homo sapiens, UniProt O15111).
T16 construct: purchased Eurofins KinaseProfiler (Eurofins Cerep)
Description: Eurofins KinaseProfiler radiometric kinase assay. The settings on record: read-out: IKKα(h) % Residual activity.

Assay [17] deals with T17, SAPK2a(h) (Homo sapiens, UniProt Q16539).
T17 construct: purchased Eurofins (Eurofins Cerep) KinaseProfiler
Description: Eurofins KinaseProfiler radiometric kinase assay. The settings on record: read-out: SAPK2a(h) % Residual activity.

The target in assay [18] is T18, EGFR(h) (Homo sapiens, UniProt P00533).
T18 construct: purchased Eurofins KinaseProfiler (Eurofins Cerep)
Description: Eurofins KinaseProfiler radiometric kinase assay. As to conditions: read-out: EGFR(h) % Residual activity.

The target in assay [19] is FYNα (Homo sapiens, UniProt P06241). Description: FYNα kinase assay, LANCE Ultra TR-FRET. As to conditions: mean ± SD of at least three independent determinations; ATP near Km; read-out: Fyn IC50. For orientation: In TR-FRET formats the signal depends on donor and acceptor labels being close together.
FYNα, sequence (P06241 whole entry): as the sequence (P06241 whole entry) above
Assay [20] has as its target T19, PKG1α(h) (Homo sapiens, UniProt Q13976).
T19 construct: purchased Eurofins KinaseProfiler (Eurofins Cerep)
Description: Eurofins KinaseProfiler radiometric kinase assay. As to conditions: read-out: PKG1α(h) % Residual activity.

The text below walks through data of article PMC12406253, “Exploration of the Neuromodulatory Properties of Fyn and GSK-3β Kinases Exploiting 7‑Azaindole-Based Inhibitors” (Journal of Medicinal Chemistry, 2025).

Where only a bound is given, the exact number is not on record here.

The inhibition is the drop in the measured response relative to a control, in per cent. Read a high inhibition as a response far below the control. Usually IC50 stands for the midpoint of a concentration-inhibition curve.

T2 sequence (Q04759 whole entry): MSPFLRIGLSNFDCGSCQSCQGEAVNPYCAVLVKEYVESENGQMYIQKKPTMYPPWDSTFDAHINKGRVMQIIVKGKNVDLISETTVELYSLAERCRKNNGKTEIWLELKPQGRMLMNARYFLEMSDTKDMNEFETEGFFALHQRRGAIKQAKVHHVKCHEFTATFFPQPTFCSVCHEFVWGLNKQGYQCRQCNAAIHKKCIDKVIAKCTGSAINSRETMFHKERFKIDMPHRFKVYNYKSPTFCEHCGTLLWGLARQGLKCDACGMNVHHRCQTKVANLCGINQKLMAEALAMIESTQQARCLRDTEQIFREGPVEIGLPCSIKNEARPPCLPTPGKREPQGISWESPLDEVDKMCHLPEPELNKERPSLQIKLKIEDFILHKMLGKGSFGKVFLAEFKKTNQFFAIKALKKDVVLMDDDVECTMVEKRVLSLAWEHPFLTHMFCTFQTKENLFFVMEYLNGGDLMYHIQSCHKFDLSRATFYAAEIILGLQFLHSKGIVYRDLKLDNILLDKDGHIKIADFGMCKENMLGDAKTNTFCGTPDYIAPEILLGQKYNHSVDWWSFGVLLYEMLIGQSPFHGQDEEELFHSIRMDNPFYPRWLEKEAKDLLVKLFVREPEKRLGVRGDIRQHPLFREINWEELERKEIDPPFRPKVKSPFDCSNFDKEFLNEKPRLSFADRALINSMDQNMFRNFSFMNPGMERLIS
T10 sequence (P51955 whole entry): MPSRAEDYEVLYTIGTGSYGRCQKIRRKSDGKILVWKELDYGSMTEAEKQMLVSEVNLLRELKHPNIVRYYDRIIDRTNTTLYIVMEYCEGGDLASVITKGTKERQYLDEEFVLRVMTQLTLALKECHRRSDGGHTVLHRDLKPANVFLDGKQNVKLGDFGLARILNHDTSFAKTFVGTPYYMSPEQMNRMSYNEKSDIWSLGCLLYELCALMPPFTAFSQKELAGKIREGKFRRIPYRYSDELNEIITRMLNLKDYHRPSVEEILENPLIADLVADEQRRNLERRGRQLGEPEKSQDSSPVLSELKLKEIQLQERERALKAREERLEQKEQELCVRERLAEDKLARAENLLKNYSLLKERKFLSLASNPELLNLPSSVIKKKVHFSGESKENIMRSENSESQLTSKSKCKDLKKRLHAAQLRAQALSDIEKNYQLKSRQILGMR
T14 sequence (Q14012 whole entry): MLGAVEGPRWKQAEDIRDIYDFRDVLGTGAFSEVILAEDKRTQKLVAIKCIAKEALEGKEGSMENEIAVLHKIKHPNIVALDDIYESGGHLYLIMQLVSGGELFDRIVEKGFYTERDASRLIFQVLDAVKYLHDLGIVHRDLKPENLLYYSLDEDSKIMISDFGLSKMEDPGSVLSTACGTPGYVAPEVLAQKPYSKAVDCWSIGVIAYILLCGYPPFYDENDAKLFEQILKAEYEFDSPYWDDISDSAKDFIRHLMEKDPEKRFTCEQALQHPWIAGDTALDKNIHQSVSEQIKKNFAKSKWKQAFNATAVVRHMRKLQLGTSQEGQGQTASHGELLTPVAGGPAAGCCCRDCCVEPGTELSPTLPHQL
T6 sequence (O00418 whole entry): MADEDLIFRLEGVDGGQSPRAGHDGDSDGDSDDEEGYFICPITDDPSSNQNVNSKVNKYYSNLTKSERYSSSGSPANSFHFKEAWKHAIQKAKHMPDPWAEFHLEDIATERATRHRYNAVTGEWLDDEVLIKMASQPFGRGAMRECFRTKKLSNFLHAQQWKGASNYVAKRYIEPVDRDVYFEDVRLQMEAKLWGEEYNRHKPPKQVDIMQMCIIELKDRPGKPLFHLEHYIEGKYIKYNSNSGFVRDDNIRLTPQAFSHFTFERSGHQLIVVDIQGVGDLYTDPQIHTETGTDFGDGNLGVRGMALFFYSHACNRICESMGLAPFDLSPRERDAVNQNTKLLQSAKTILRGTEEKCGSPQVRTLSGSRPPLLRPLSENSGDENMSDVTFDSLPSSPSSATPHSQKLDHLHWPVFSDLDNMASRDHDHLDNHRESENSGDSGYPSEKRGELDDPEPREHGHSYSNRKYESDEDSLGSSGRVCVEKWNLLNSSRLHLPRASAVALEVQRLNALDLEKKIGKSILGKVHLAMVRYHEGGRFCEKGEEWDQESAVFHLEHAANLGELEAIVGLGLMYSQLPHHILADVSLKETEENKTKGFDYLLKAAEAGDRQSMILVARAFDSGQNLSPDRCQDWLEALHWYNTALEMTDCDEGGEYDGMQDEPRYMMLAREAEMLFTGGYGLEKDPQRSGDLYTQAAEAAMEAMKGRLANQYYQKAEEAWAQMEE

On to `Br.Cc1sc(NCc2ccccc2)nc1-c1c[nH]c2ncc(Br)cc12` [Compound 41, N-Benzyl-4-(5-bromo-1H-pyrrolo[2,3-b]pyridin-3-yl)-5-methylthiazol-2-amine Hydrobromide], for which the remaining activity at 10 µM in assay [1] came to 50%; in [2] it was 98%; in assay [3], 52%; in assay [4], 27%; in assay [5], 55%; in [6] it was 121%. Further, the remaining activity at 10 µM in [7] is 9%; in assay [8] it was -2%; in assay [9], 89%; in assay [10], 56%; in assay [11] it was 86%; in [12] it was 52%. Besides, the remaining activity at 10 µM came out at 97% in assay [13]; 89% in [14]; 109% in assay [15]; 96% in assay [16]; 101% in assay [17]; 50% in [18]. Moreover, the remaining activity at 10 µM in [20] amounted to 80%. Also, in [7], the inhibition at 10 µM was > 90%. For the same molecule, the “Fyn inhibition” value in [8] is “completely inhibited”. Also, the IC50 in assay [19] is 50 ± 10 nM.
Consider `Br.Cc1sc(NCc2ccnc(Cl)c2)nc1-c1c[nH]c2ncccc12` [Compound 43, N-((2-Chloropyridin-4-yl)methyl)-5-methyl-4-(1H-pyrrolo[2,3-b]pyridin-3-yl)thiazol-2-amine Hydrobromide], for which the remaining activity at 10 µM in assay [1] amounted to 14%; in [2] it was 23%; in assay [3] it was 31%; in assay [4], 20%; in [5], 62%; in [6], 108%. Moreover, the remaining activity at 10 µM was 14% in assay [7]; 0% in assay [8]; 94% in assay [9]; 84% in assay [10]; 97% in [11]; 34% in [12]. For the same molecule, the remaining activity at 10 µM is 96% in assay [13]; 80% in assay [14]; 108% in assay [15]; 99% in assay [16]; 103% in assay [17]; 86% in assay [18]. For the same molecule, the remaining activity at 10 µM in [20] amounted to 40%. In addition, the “Fyn inhibition” value in [8] is on record as “completely inhibited”. Moreover, the IC50 in assay [19] is 44 ± 3 nM.
